Patent US6428812B1, “Process for producing granules containing angiotensin-converting enzyme inhibiting peptides” (Calpis Co., Ltd., priority 1999, dated 2002)

Biological target: angiotensin-converting enzyme (ACE) (Homo sapiens, UniProt P12821)
Test: ACE inhibitory activity
Format: biochemical
Conditions: ratio IPP versus VPP

angiotensin-converting enzyme (ACE), sequence (P12821 30-1306, species assumed): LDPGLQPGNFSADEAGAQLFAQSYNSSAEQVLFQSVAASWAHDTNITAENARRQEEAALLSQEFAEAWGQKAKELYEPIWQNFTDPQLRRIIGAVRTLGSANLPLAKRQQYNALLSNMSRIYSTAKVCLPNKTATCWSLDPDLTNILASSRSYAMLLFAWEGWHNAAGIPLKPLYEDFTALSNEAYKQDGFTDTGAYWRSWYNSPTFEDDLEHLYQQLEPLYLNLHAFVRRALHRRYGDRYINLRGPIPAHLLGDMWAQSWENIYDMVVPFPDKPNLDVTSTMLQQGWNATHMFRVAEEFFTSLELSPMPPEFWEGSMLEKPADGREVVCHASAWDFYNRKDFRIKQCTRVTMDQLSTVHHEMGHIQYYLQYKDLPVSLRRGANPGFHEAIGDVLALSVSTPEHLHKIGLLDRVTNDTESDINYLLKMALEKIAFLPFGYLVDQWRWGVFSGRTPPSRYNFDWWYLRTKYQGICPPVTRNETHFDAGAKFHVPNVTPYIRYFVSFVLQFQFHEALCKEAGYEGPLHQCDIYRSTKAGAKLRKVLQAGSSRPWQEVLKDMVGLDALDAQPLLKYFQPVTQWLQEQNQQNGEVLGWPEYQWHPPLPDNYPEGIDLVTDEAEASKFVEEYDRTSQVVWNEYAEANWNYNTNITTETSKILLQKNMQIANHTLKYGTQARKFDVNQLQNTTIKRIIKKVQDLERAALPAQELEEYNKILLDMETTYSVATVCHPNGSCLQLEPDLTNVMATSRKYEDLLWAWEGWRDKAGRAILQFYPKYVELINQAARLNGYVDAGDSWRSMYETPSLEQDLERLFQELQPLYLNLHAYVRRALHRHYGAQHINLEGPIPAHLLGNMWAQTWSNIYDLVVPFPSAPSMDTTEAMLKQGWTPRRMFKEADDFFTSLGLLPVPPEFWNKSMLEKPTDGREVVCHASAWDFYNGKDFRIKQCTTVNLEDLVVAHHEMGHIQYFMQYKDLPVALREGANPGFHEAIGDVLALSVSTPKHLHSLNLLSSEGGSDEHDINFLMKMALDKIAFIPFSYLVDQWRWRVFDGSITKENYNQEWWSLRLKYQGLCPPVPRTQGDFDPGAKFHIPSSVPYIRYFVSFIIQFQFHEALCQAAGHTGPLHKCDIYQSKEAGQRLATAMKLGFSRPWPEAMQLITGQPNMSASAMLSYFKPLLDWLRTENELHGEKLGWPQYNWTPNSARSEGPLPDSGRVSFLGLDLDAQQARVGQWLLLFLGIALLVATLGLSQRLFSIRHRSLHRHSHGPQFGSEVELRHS

## Ile-Pro-Pro [IPP]
  ACEI activity of IPP relative to VPP: 1.7 times
